Experimental data taken from PubChem BioAssay (NCI).
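The compound was tested at five concentrations on cells cultured in 96-well plates, with a 48-hour exposure period. TGI marks complete inhibition of growth.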

Tests used:
Experiment in all cases: DTP human tumour cell line panel, 48 h
786-0 renal = test system: 786-0 renal
A498 renal = test system: A498 renal
A549 NSCLC = test system: A549 NSCLC
ACHN renal = test system: ACHN renal
BT-549 breast = test system: BT-549 breast
CAKI-1 renal = test system: CAKI-1 renal
CCRF-CEM leukemia = test system: CCRF-CEM leukemia
COLO 205 colon = test system: COLO 205 colon
DU-145 prostate = test system: DU-145 prostate
EKVX NSCLC = test system: EKVX NSCLC
HCC-2998 colon = test system: HCC-2998 colon
HCT-116 colon = test system: HCT-116 colon
HCT-15 colon = test system: HCT-15 colon
HL-60(TB) leukemia = test system: HL-60(TB) leukemia
HOP-62 NSCLC = test system: HOP-62 NSCLC
HOP-92 NSCLC = test system: HOP-92 NSCLC
HS 578T breast = test system: HS 578T breast
HT29 colon = test system: HT29 colon
IGROV1 ovarian = test system: IGROV1 ovarian
K-562 leukemia = test system: K-562 leukemia
KM12 colon = test system: KM12 colon
LOX IMVI melanoma = test system: LOX IMVI melanoma
M14 melanoma = test system: M14 melanoma
MALME-3M melanoma = test system: MALME-3M melanoma
MCF7 breast = test system: MCF7 breast
MDA-MB-231 breast = test system: MDA-MB-231 breast
MDA-MB-435 = test system: MDA-MB-435
MDA-N = test system: MDA-N
MOLT-4 leukemia = test system: MOLT-4 leukemia
NCI-H226 lung = test system: NCI-H226 lung
NCI-H23 lung = test system: NCI-H23 lung
NCI-H460 lung = test system: NCI-H460 lung
NCI-H522 lung = test system: NCI-H522 lung
NCI/ADR-RES ovarian = test system: NCI/ADR-RES ovarian
OVCAR-3 ovarian = test system: OVCAR-3 ovarian
OVCAR-4 ovarian = test system: OVCAR-4 ovarian
OVCAR-5 ovarian = test system: OVCAR-5 ovarian
OVCAR-8 ovarian = test system: OVCAR-8 ovarian
PC-3 prostate = test system: PC-3 prostate
RPMI-8226 leukemia = test system: RPMI-8226 leukemia
RXF 393 renal = test system: RXF 393 renal
SF-268 CNS = test system: SF-268 CNS
SF-295 CNS = test system: SF-295 CNS
SF-539 CNS = test system: SF-539 CNS
SK-MEL-2 melanoma = test system: SK-MEL-2 melanoma
SK-MEL-28 melanoma = test system: SK-MEL-28 melanoma
SK-MEL-5 melanoma = test system: SK-MEL-5 melanoma
SK-OV-3 ovarian = test system: SK-OV-3 ovarian
SN12C renal = test system: SN12C renal
SNB-19 CNS = test system: SNB-19 CNS
SNB-75 CNS = test system: SNB-75 CNS
SR leukemia = test system: SR leukemia
SW-620 colon = test system: SW-620 colon
T-47D breast = test system: T-47D breast
TK-10 renal = test system: TK-10 renal
U251 CNS = test system: U251 CNS
UACC-257 melanoma = test system: UACC-257 melanoma
UACC-62 melanoma = test system: UACC-62 melanoma
UO-31 renal = test system: UO-31 renal

Question: Which results are given for `O=C(NC(N1CCN(c2cc3c(cc2F)c(=O)c(C(=O)O)cn3C2CC2)CC1)(C(F)(F)F)C(F)(F)F)c1ccccc1`?
Answer: TGI (786-0 renal): > 100 µM; TGI (A498 renal): 94.4 µM; TGI (A549 NSCLC): > 100 µM; TGI (ACHN renal): > 100 µM; TGI (BT-549 breast): > 100 µM; TGI (CAKI-1 renal): 85.4 µM; TGI (CCRF-CEM leukemia): 72.3 µM; TGI (COLO 205 colon): 34.8 µM; TGI (DU-145 prostate): > 100 µM; TGI (EKVX NSCLC): > 100 µM; TGI (HCC-2998 colon): 66 µM; TGI (HCT-116 colon): > 100 µM; TGI (HCT-15 colon): 61.6 µM; TGI (HL-60(TB) leukemia): 53.8 µM; TGI (HOP-62 NSCLC): > 100 µM; TGI (HOP-92 NSCLC): 93.3 µM; TGI (HS 578T breast): > 100 µM; TGI (HT29 colon): > 100 µM; TGI (IGROV1 ovarian): > 100 µM; TGI (K-562 leukemia): > 100 µM; TGI (KM12 colon): 84.4 µM; TGI (LOX IMVI melanoma): > 100 µM; TGI (M14 melanoma): > 100 µM; TGI (MALME-3M melanoma): 77.5 µM; TGI (MCF7 breast): > 100 µM; TGI (MDA-MB-231 breast): 70.6 µM; TGI (MDA-MB-435): > 100 µM; TGI (MDA-N): > 100 µM; TGI (MOLT-4 leukemia): 62 µM; TGI (NCI-H226 lung): > 100 µM; TGI (NCI-H23 lung): 89.2 µM; TGI (NCI-H460 lung): > 100 µM; TGI (NCI-H522 lung): 38.7 µM; TGI (NCI/ADR-RES ovarian): > 100 µM; TGI (OVCAR-3 ovarian): 96.1 µM; TGI (OVCAR-4 ovarian): > 100 µM; TGI (OVCAR-5 ovarian): 65.4 µM; TGI (OVCAR-8 ovarian): > 100 µM; TGI (PC-3 prostate): > 100 µM; TGI (RPMI-8226 leukemia): 69.9 µM; TGI (RXF 393 renal): > 100 µM; TGI (SF-268 CNS): > 100 µM; TGI (SF-295 CNS): > 100 µM; TGI (SF-539 CNS): 80.8 µM; TGI (SK-MEL-2 melanoma): > 100 µM; TGI (SK-MEL-28 melanoma): > 100 µM; TGI (SK-MEL-5 melanoma): 62.9 µM; TGI (SK-OV-3 ovarian): 94.1 µM; TGI (SN12C renal): > 100 µM; TGI (SNB-19 CNS): > 100 µM; TGI (SNB-75 CNS): > 100 µM; TGI (SR leukemia): 87.2 µM; TGI (SW-620 colon): > 100 µM; TGI (T-47D breast): > 100 µM; TGI (TK-10 renal): 87.4 µM; TGI (U251 CNS): > 100 µM; TGI (UACC-257 melanoma): 80.8 µM; TGI (UACC-62 melanoma): > 100 µM; TGI (UO-31 renal): 81.5 µM

Question: What does the source list for `CC(=O)O[C@@H]1C(C2CCCCC2)C=[N+]([O-])O[C@@H]1OC1CCCC1(c1ccccc1)c1ccccc1` (some centres not stated)?
Answer: TGI (786-0 renal): 16.8 µM; TGI (A498 renal): 17.1 µM; TGI (A549 NSCLC): 28.5 µM; TGI (ACHN renal): 4.84 µM; TGI (BT-549 breast): 24.8 µM; TGI (CAKI-1 renal): 10.4 µM; TGI (CCRF-CEM leukemia): 7.49 µM; TGI (COLO 205 colon): 17.7 µM; TGI (DU-145 prostate): 25.3 µM; TGI (EKVX NSCLC): 30.2 µM; TGI (HCC-2998 colon): 26 µM; TGI (HCT-116 colon): 15.5 µM; TGI (HCT-15 colon): 4.21 µM; TGI (HL-60(TB) leukemia): 3.4 µM; TGI (HOP-62 NSCLC): 29.3 µM; TGI (HOP-92 NSCLC): 23.1 µM; TGI (HS 578T breast): 27.8 µM; TGI (HT29 colon): 5.65 µM; TGI (IGROV1 ovarian): 8.83 µM; TGI (K-562 leukemia): > 40.2 µM; TGI (KM12 colon): 22.9 µM; TGI (LOX IMVI melanoma): 3.48 µM; TGI (M14 melanoma): 12.1 µM; TGI (MALME-3M melanoma): 9.05 µM; TGI (MCF7 breast): 12 µM; TGI (MDA-MB-231 breast): 27.1 µM; TGI (MDA-MB-435): 9.04 µM; TGI (MDA-N): 12.2 µM; TGI (MOLT-4 leukemia): > 27.6 µM; TGI (NCI-H226 lung): 32.1 µM; TGI (NCI-H23 lung): 26.2 µM; TGI (NCI-H460 lung): 30 µM; TGI (NCI-H522 lung): 4.1 µM; TGI (NCI/ADR-RES ovarian): 29.3 µM; TGI (OVCAR-3 ovarian): 10.3 µM; TGI (OVCAR-4 ovarian): 21.1 µM; TGI (OVCAR-5 ovarian): 30.7 µM; TGI (OVCAR-8 ovarian): 4.22 µM; TGI (PC-3 prostate): 23 µM; TGI (RPMI-8226 leukemia): 7.91 µM; TGI (RXF 393 renal): 6.82 µM; TGI (SF-268 CNS): 17.6 µM; TGI (SF-295 CNS): 27.4 µM; TGI (SF-539 CNS): 14.2 µM; TGI (SK-MEL-2 melanoma): 27.8 µM; TGI (SK-MEL-28 melanoma): 5.84 µM; TGI (SK-MEL-5 melanoma): 28 µM; TGI (SK-OV-3 ovarian): 29.1 µM; TGI (SN12C renal): 21.2 µM; TGI (SNB-19 CNS): 30.5 µM; TGI (SNB-75 CNS): 17.6 µM; TGI (SR leukemia): > 22.8 µM; TGI (SW-620 colon): 4.63 µM; TGI (T-47D breast): 10.1 µM; TGI (TK-10 renal): 28.3 µM; TGI (U251 CNS): 26.1 µM; TGI (UACC-257 melanoma): 36.5 µM; TGI (UACC-62 melanoma): 19.4 µM; TGI (UO-31 renal): 20.4 µM

Question: What does the source list for `COc1ccc2nc3n[nH]c(N)c3nc2c1`?
Answer: TGI (786-0 renal): > 65.9 µM; TGI (A498 renal): > 62.3 µM; TGI (A549 NSCLC): > 26.5 µM; TGI (ACHN renal): > 23.7 µM; TGI (BT-549 breast): 62.9 µM; TGI (CAKI-1 renal): > 90.6 µM; TGI (CCRF-CEM leukemia): > 25.7 µM; TGI (COLO 205 colon): 18.9 µM; TGI (DU-145 prostate): > 49.2 µM; TGI (EKVX NSCLC): 45.6 µM; TGI (HCC-2998 colon): > 74 µM; TGI (HCT-116 colon): > 32.8 µM; TGI (HCT-15 colon): > 93.7 µM; TGI (HL-60(TB) leukemia): 4.48 µM; TGI (HOP-62 NSCLC): > 76.5 µM; TGI (HOP-92 NSCLC): 48.6 µM; TGI (HS 578T breast): 23.8 µM; TGI (HT29 colon): 36.9 µM; TGI (IGROV1 ovarian): 17.1 µM; TGI (K-562 leukemia): > 100 µM; TGI (KM12 colon): > 93 µM; TGI (LOX IMVI melanoma): 20.4 µM; TGI (M14 melanoma): 27.6 µM; TGI (MALME-3M melanoma): 69.6 µM; TGI (MCF7 breast): > 26.7 µM; TGI (MDA-MB-231 breast): 64.4 µM; TGI (MDA-MB-435): 72.3 µM; TGI (MDA-N): 44.4 µM; TGI (MOLT-4 leukemia): > 100 µM; TGI (NCI-H226 lung): 24.8 µM; TGI (NCI-H23 lung): 15.5 µM; TGI (NCI-H460 lung): > 84.2 µM; TGI (NCI-H522 lung): 27.3 µM; TGI (NCI/ADR-RES ovarian): 33.8 µM; TGI (OVCAR-3 ovarian): 38.3 µM; TGI (OVCAR-4 ovarian): > 87.3 µM; TGI (OVCAR-5 ovarian): > 87.2 µM; TGI (OVCAR-8 ovarian): 32.5 µM; TGI (PC-3 prostate): 36.9 µM; TGI (RPMI-8226 leukemia): 19 µM; TGI (RXF 393 renal): 5.91 µM; TGI (SF-268 CNS): 23.8 µM; TGI (SF-295 CNS): > 76.7 µM; TGI (SF-539 CNS): 12 µM; TGI (SK-MEL-2 melanoma): 17.5 µM; TGI (SK-MEL-28 melanoma): 42.2 µM; TGI (SK-MEL-5 melanoma): > 29.1 µM; TGI (SK-OV-3 ovarian): > 64.9 µM; TGI (SN12C renal): > 69.1 µM; TGI (SNB-19 CNS): > 100 µM; TGI (SNB-75 CNS): 21.7 µM; TGI (SR leukemia): > 78 µM; TGI (SW-620 colon): 45.9 µM; TGI (T-47D breast): 46.5 µM; TGI (TK-10 renal): > 75.7 µM; TGI (U251 CNS): > 56.3 µM; TGI (UACC-257 melanoma): 90.4 µM; TGI (UACC-62 melanoma): 19.8 µM; TGI (UO-31 renal): 55 µM
